Key:
Assay in all cases: PI3K Inhibition Assay
[1] = molecular target: Phosphatidylinositol 3-kinase regulatory subunit alpha/4,5-bisphosphate 3-kinase catalytic subunit alpha isoform (Homo sapiens, UniProt P42336)
Description: (§1) Inhibition of PI3K enzyme activity is measured in a microtiter plate-based fluorescence polarization (FP) assay.

[2] = molecular target: Phosphatidylinositol 3-kinase regulatory subunit beta/4,5-bisphosphate 3-kinase catalytic subunit beta isoform (Homo sapiens, UniProt P42338); conditions: pH 7.5; 22 °C
Description: as §1

[3] = molecular target: Phosphatidylinositol 3-kinase regulatory subunit beta/4,5-bisphosphate 3-kinase catalytic subunit delta isoform (Homo sapiens, UniProt O00329+O00459); conditions: pH 7.5; 22 °C
Description: as §1

[4] = molecular target: Phosphatidylinositol 4,5-bisphosphate 3-kinase catalytic subunit gamma isoform/Phosphoinositide 3-kinase regulatory subunit 5 (Homo sapiens, UniProt P48736); conditions: pH 7.5; 22 °C
Chain of Phosphatidylinositol 4,5-bisphosphate 3-kinase catalytic subunit gamma isoform/Phosphoinositide 3-kinase regulatory subunit 5 (P48736 whole entry, canonical isoform): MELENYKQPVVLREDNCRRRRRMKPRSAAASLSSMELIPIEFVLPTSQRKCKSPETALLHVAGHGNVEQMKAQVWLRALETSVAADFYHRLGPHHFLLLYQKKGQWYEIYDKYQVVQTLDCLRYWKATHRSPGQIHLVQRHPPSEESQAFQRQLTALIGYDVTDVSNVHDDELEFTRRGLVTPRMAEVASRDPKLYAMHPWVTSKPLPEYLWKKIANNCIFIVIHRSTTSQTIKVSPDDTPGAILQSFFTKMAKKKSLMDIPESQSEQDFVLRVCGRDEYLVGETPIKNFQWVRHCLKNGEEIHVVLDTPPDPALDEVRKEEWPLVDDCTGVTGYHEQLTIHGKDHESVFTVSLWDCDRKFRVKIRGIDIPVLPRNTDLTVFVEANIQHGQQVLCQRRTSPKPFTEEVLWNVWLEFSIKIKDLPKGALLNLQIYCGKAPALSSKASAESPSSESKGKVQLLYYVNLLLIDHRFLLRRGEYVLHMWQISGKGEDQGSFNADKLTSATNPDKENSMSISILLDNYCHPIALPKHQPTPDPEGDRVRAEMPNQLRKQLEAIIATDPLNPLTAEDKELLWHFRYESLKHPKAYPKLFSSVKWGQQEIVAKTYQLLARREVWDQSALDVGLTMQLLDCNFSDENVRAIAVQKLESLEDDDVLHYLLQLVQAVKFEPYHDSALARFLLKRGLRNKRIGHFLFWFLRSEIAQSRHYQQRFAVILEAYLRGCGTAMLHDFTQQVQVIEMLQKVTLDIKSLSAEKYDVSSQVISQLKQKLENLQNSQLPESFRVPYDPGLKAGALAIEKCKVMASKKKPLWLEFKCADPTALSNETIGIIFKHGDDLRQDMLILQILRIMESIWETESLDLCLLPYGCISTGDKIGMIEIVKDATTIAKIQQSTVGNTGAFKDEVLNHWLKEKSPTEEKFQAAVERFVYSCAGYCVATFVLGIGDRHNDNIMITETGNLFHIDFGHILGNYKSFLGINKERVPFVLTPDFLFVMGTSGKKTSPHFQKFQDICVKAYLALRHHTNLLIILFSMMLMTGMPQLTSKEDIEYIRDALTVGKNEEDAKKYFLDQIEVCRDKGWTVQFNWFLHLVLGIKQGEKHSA
Chain of Phosphatidylinositol 4,5-bisphosphate 3-kinase catalytic subunit gamma isoform/Phosphoinositide 3-kinase regulatory subunit 5 (Q8WYR1 whole entry, further chain, canonical isoform): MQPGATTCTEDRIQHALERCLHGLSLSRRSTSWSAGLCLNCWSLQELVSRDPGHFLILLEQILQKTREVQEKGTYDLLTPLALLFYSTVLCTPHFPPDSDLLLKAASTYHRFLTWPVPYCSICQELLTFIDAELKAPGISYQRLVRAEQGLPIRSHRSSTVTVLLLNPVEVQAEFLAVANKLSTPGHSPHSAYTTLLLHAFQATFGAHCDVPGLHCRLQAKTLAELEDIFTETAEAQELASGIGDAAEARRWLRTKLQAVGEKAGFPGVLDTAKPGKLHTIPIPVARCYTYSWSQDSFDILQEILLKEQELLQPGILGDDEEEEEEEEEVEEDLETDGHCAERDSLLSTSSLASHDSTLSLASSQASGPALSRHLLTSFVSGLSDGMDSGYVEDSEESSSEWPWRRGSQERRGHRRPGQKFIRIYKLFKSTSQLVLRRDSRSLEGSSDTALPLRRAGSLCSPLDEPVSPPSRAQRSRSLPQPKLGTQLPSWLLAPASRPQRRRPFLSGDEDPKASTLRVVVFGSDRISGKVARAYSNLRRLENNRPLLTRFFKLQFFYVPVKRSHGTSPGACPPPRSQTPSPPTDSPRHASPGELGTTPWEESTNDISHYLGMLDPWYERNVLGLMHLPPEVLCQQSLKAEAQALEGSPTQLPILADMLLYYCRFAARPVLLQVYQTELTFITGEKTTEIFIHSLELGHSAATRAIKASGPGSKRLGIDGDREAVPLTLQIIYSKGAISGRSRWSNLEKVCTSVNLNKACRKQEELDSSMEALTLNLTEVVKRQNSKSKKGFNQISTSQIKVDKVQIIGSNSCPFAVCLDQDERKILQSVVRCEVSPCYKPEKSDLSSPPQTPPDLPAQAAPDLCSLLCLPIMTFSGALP
Description: as §1

Chain of Phosphatidylinositol 3-kinase regulatory subunit alpha/4,5-bisphosphate 3-kinase catalytic subunit alpha isoform (P27986 whole entry, canonical isoform): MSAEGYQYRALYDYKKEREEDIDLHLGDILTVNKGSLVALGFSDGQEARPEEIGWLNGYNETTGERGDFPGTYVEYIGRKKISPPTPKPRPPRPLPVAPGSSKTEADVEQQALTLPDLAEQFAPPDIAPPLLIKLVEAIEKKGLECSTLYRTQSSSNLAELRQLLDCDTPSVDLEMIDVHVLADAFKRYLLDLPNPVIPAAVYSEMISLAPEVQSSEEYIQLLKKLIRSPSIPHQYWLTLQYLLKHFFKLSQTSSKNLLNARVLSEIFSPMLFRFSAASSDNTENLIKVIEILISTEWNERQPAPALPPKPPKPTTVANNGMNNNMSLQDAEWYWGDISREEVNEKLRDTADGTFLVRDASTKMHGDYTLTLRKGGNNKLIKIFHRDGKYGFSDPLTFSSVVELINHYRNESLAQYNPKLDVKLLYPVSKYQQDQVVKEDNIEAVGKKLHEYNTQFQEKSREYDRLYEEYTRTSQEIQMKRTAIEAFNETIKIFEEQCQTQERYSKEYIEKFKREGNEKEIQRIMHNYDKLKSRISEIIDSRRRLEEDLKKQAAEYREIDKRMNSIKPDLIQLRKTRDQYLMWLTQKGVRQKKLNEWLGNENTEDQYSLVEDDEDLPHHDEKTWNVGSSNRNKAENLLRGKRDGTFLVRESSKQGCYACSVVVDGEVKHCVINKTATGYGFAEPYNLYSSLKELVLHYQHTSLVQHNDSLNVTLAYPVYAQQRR
Chain of Phosphatidylinositol 3-kinase regulatory subunit alpha/4,5-bisphosphate 3-kinase catalytic subunit alpha isoform (P42336 whole entry, canonical isoform): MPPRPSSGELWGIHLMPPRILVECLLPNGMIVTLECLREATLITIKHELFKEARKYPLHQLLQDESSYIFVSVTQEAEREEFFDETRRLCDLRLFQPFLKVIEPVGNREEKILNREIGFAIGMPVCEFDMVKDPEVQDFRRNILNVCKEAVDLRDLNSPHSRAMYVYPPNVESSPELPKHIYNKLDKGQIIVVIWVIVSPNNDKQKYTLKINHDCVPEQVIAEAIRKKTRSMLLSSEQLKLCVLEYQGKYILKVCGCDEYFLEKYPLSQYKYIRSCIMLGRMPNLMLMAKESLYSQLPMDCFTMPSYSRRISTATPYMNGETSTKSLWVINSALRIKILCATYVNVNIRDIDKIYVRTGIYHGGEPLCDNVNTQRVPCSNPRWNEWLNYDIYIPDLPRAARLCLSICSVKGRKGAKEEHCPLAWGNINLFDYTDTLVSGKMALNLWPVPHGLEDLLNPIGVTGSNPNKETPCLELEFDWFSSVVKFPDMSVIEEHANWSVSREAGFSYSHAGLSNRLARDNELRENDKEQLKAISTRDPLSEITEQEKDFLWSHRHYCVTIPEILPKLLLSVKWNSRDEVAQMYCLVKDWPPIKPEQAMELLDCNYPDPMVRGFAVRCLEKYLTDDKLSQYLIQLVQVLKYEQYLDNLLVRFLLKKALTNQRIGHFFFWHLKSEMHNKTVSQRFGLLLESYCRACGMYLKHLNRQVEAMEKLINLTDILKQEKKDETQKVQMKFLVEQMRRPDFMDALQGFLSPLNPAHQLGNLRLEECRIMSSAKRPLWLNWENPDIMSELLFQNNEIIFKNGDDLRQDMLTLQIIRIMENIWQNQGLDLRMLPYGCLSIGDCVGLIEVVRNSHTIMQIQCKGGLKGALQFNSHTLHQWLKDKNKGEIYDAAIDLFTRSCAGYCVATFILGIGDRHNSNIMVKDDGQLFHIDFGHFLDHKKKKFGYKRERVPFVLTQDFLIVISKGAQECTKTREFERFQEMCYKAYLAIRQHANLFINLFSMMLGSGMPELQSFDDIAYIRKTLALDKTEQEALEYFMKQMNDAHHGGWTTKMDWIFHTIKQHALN

SMILES | IC50 ([1]; pH 7.5, 22 °C) | also measured
COC[C@H]1OC(=O)C(=CN(C)CCCN(C)C)C2C(=O)C(=O)C3=C([C@H](O)C[C@@]4(C)C3CC[C@@H]4O)[C@]21C (stereo partly drawn) [(2R,3S,6Z,14S,15S,17R)-6-({[3-(dimethylamino)propyl](methyl)amino}methylidene)-8,14,17-trihydroxy-3-(methoxymethyl)-2,15-dimethyl-4-oxatetracyclo[8.7.0.0^{2,7}.0^{11,15}]heptadeca-1(10),7-diene-5,9-dione] | 638 nM | 
COC[C@H]1OC(=O)C(=CN(C)CCCN(C)C)C2C(=O)C(=O)C3=C([C@H](OC(C)=O)C[C@@]4(C)C3CC[C@@H]4O)[C@]21C (stereo partly drawn) [(2R,3S,6Z,14S,15S,17R)-6-({[3-(dimethylamino)propyl](methyl)amino}methylidene)-8,14-dihydroxy-3-(methoxymethyl)-2,15-dimethyl-5,9-dioxo-4-oxatetracyclo[8.7.0.0^{2,7}.0^{11,15}]heptadeca-1(10),7-dien-17-yl acetate] | 6.4 nM | IC50 [2]: 13 nM; IC50 [3]: 11 nM; IC50 [4]: 8 nM
COC[C@H]1OC(=O)C(=CNCCCN(C)C)C2C(=O)C(=O)C3=C([C@H](OC(C)=O)C[C@@]4(C)C3CC[C@@H]4O)[C@]21C (stereo partly drawn) [(2R,3S,6Z,14S,15S,17R)-6-({[3-(dimethylamino)propyl]amino}methylidene)-8,14-dihydroxy-3-(methoxymethyl)-2,15-dimethyl-5,9-dioxo-4-oxatetracyclo[8.7.0.0^{2,7}.0^{11,15}]heptadeca-1(10),7-dien-17-yl acetate] | > 10000 nM | 
COC[C@H]1OC(=O)C(=CN(CCN(C)C)Cc2ccccc2)C2C(=O)C(=O)C3=C([C@H](OC(C)=O)C[C@@]4(C)C3CC[C@@H]4O)[C@]21C (stereo partly drawn) [(2R,3S,6Z,14S,15S,17R)-6-({benzyl[2-(dimethylamino)ethyl]amino}methylidene)-8,14-dihydroxy-3-(methoxymethyl)-2,15-dimethyl-5,9-dioxo-4-oxatetracyclo[8.7.0.0^{2,7}.0^{11,15}]heptadeca-1(10),7-dien-17-yl acetate] | 66 nM | 
COC[C@H]1OC(=O)C(=CN(CCN(C)C)C(C)(C)C)C2C(=O)C(=O)C3=C([C@H](OC(C)=O)C[C@@]4(C)C3CC[C@@H]4O)[C@]21C (stereo partly drawn) [(2R,3S,6Z,14S,15S,17R)-6-({tert-butyl[2-(dimethylamino)ethyl]amino}methylidene)-8,14-dihydroxy-3-(methoxymethyl)-2,15-dimethyl-5,9-dioxo-4-oxatetracyclo[8.7.0.0^{2,7}.0^{11,15}]heptadeca-1(10),7-dien-17-yl acetate] | 9.6 nM | 
CCN(C=C1C(=O)O[C@H](COC)[C@]2(C)C3=C(C(=O)C(=O)C12)C1CC[C@H](O)[C@@]1(C)C[C@H]3O)CC (stereo partly drawn) [(2R,3S,6Z,14S,15S,17R)-6-[(diethylamino)methylidene]-8,14,17-trihydroxy-3-(methoxymethyl)-2,15-dimethyl-4-oxatetracyclo[8.7.0.0^{2,7}.0^{11,15}]heptadeca-1(10),7-diene-5,9-dione] | 7850 nM | 
CCN(C=C1C(=O)O[C@H](COC)[C@]2(C)C3=C(C(=O)C(=O)C12)C1CC[C@H](O)[C@@]1(C)C[C@H]3OC(C)=O)CC (stereo partly drawn) [(2R,3S,6Z,14S,15S,17R)-6-[(diethylamino)methylidene]-8,14-dihydroxy-3-(methoxymethyl)-2,15-dimethyl-5,9-dioxo-4-oxatetracyclo[8.7.0.0^{2,7}.0^{11,15}]heptadeca-1(10),7-dien-17-yl acetate] | 382 nM | 
C=CCN(C=C1C(=O)O[C@H](COC)[C@]2(C)C3=C(C(=O)C(=O)C12)C1CCC(=O)[C@@]1(C)C[C@H]3OC(C)=O)CC=C (some centres undefined) [PX-866] | 88 nM | 
COC[C@H]1OC(=O)C(=CN2CCC(C(=O)OC)CC2)C2C(=O)C(=O)C3=C([C@H](OC(C)=O)C[C@@]4(C)C3CC[C@@H]4O)[C@]21C (stereo partly drawn) [methyl 1-{[(2R,3S,6E,14S,15S,17R)-17-(acetyloxy)-8,14-dihydroxy-3-(methoxymethyl)-2,15-dimethyl-5,9-dioxo-4-oxatetracyclo[8.7.0.0^{2,7}.0^{11,15}]heptadeca-1(10),7-dien-6-ylidene]methyl}piperidine-4-carboxylate] |  | IC50 [1]: 31 nM
COC[C@H]1OC(=O)C(=CN(C)CC(=O)OC(C)(C)C)C2C(=O)C(=O)C3=C([C@H](OC(C)=O)C[C@@]4(C)C3CC[C@@H]4O)[C@]21C (stereo partly drawn) [tert-butyl 2-({[(2R,3S,6E,14S,15S,17R)-17-(acetyloxy)-8,14-dihydroxy-3-(methoxymethyl)-2,15-dimethyl-5,9-dioxo-4-oxatetracyclo[8.7.0.0^{2,7}.0^{11,15}]heptadeca-1(10),7-dien-6-ylidene]methyl}(methyl)amino)acetate] |  | IC50 [1]: 1580 nM

Further lines, with some results ahead:

IC50 ([1]; pH 7.5, 22 °C) | SMILES | also measured
> 10000 nM | CCNC=C1C(=O)O[C@H](COC)[C@]2(C)C3=C(C(=O)C(=O)C12)C1CC[C@H](O)[C@@]1(C)C[C@H]3OC(C)=O (stereo partly drawn) [(2R,3S,6Z,14S,15S,17R)-6-[(ethylamino)methylidene]-8,14-dihydroxy-3-(methoxymethyl)-2,15-dimethyl-5,9-dioxo-4-oxatetracyclo[8.7.0.0^{2,7}.0^{11,15}]heptadeca-1(10),7-dien-17-yl acetate] | 
> 10000 nM | COC[C@H]1OC(=O)C(=CNC(C)(C)C)C2C(=O)C(=O)C3=C([C@H](OC(C)=O)C[C@@]4(C)C3CC[C@@H]4O)[C@]21C (stereo partly drawn) [(2R,3S,6Z,14S,15S,17R)-6-[(tert-butylamino)methylidene]-8,14-dihydroxy-3-(methoxymethyl)-2,15-dimethyl-5,9-dioxo-4-oxatetracyclo[8.7.0.0^{2,7}.0^{11,15}]heptadeca-1(10),7-dien-17-yl acetate] | 
635 nM | CCCCN(C)C=C1C(=O)O[C@H](COC)[C@]2(C)C3=C(C(=O)C(=O)C12)C1CC[C@H](O)[C@@]1(C)C[C@H]3OC(C)=O (stereo partly drawn) [(2R,3S,6Z,14S,15S,17R)-6-{[butyl(methyl)amino]methylidene}-8,14-dihydroxy-3-(methoxymethyl)-2,15-dimethyl-5,9-dioxo-4-oxatetracyclo[8.7.0.0^{2,7}.0^{11,15}]heptadeca-1(10),7-dien-17-yl acetate] | 
1110 nM | COC[C@H]1OC(=O)C(=CN(CCO)C(C)(C)C)C2C(=O)C(=O)C3=C([C@H](OC(C)=O)C[C@@]4(C)C3CC[C@@H]4O)[C@]21C (stereo partly drawn) [(2R,3S,6Z,14S,15S,17R)-6-{[tert-butyl(2-hydroxyethyl)amino]methylidene}-8,14-dihydroxy-3-(methoxymethyl)-2,15-dimethyl-5,9-dioxo-4-oxatetracyclo[8.7.0.0^{2,7}.0^{11,15}]heptadeca-1(10),7-dien-17-yl acetate] | 
440 nM | COC[C@H]1OC(=O)C(=CN(C)C(C)(C)C)C2C(=O)C(=O)C3=C([C@H](OC(C)=O)C[C@@]4(C)C3CC[C@@H]4O)[C@]21C (stereo partly drawn) [(2R,3S,6Z,14S,15S,17R)-6-{[tert-butyl(methyl)amino]methylidene}-8,14-dihydroxy-3-(methoxymethyl)-2,15-dimethyl-5,9-dioxo-4-oxatetracyclo[8.7.0.0^{2,7}.0^{11,15}]heptadeca-1(10),7-dien-17-yl acetate] | 
496 nM | COC[C@H]1OC(=O)C(=CN2CCCC2)C2C(=O)C(=O)C3=C([C@H](OC(C)=O)C[C@@]4(C)C3CC[C@@H]4O)[C@]21C (stereo partly drawn) [(2R,3S,6Z,14S,15S,17R)-8,14-dihydroxy-3-(methoxymethyl)-2,15-dimethyl-5,9-dioxo-6-(pyrrolidin-1-ylmethylidene)-4-oxatetracyclo[8.7.0.0^{2,7}.0^{11,15}]heptadeca-1(10),7-dien-17-yl acetate] | 

From BindingDB's records for doi:10.1021/jm7012858 (Wyeth Research, 2008)
